Here are results for 28 compounds from ChEMBL document CHEMBL3997820, “Synthesis and evaluation of anticonvulsant properties of new N-Mannich bases derived from pyrrolidine-2,5-dione and its 3-methyl-, 3-isopropyl, and 3-benzhydryl analogs” (Bioorg Med Chem Lett, 2017).

Calls of active or inactive are those of the source. The rule behind the calls is not given here. Where only a bound is given, the exact number is not on record here.

What is called ED50 is the dose at which the effect has come halfway, by size or by number of responders. In general, TD50 refers to the dose at which the toxic effect under study appears in half of the subjects.

The test system of series [1] is Mus musculus. The experiment in a line: Anticonvulsant activity in albino CD1 mouse assessed as protection against subcutaneous pentylenetetrazole-induced seizures at 300 mg/kg, ip measured after 4 hrs. It counts as functional, organism-based.
Series [2] deals with Mus musculus. Put plainly: Neurotoxicity in albino CD1 mouse assessed as motor impairment at 300 mg/kg, ip measured after 0.5 hrs by rotarod test. To be noted: in vivo. It counts as toxicity, organism-based. In general terms: Falling from the rotarod earlier than controls is read as motor impairment.
Series [3] has as its system Mus musculus. Put plainly: Anticonvulsant activity in albino CD1 mouse assessed as protection against subcutaneous pentylenetetrazole-induced seizures at 300 mg/kg, ip measured after 0.5 hrs. It is filed as functional, organism-based.
Series [4] concerns Mus musculus. The experiment in a line: Neurotoxicity in albino CD1 mouse assessed as motor impairment at 300 mg/kg, ip measured after 4 hrs by rotarod test. It counts as toxicity, organism-based. To be noted: in vivo.
Series [5] has as its system Mus musculus. The experiment in a line: Anticonvulsant activity in albino CD1 mouse assessed as protection against maximal electroshock-induced seizures at 300 mg/kg, ip measured after 0.5 hrs. It is filed as functional, organism-based.
The test system of series [6] is Mus musculus. The experiment in a line: Anticonvulsant activity in albino CD1 mouse assessed as protection against maximal electroshock-induced seizures at 300 mg/kg, ip measured after 4 hrs. It is filed as functional, organism-based.
Series [7] has as its system Mus musculus. The experiment in a line: Anticonvulsant activity in ip dosed albino CD1 mouse assessed as minimum dose required to protect subcutaneous pentylenetetrazole-induced seizures in half and more mouse measured after 4 hrs. It counts as functional.
In series [8] the test system is Mus musculus. The experiment in a line: Anticonvulsant activity in ip dosed albino CD1 mouse assessed as minimum dose required to protect subcutaneous pentylenetetrazole-induced seizures in half and more mouse measured after 0.5 hrs. It counts as functional.
Series [9] has as its system Mus musculus. The experiment in a line: Anticonvulsant activity in ip dosed albino CD1 mouse assessed as protection against subcutaneous pentylenetetrazole-induced seizures. It is filed as functional.
The nature of series [10]: Neurotoxicity in ip dosed albino CD1 mouse assessed as motor impairment by rotarod test. It is filed as toxicity, organism-based. The conditions noted are these: in vivo.
In series [11] the test system is Mus musculus. Put plainly: Anticonvulsant in ip dosed CD1 mouse assessed as time to peak effect. It is filed as functional.
For series [12], the system named is Mus musculus. The experiment in a line: Protection index, ratio of TD50 for motor impairment in ip dosed albino CD1 mouse to ED50 for protection against subcutaneous pentylenetetrazole-induced seizures in ip dosed albino CD1 mouse.
The test system of series [13] is Mus musculus. The experiment in a line: Anticonvulsant activity in albino CD1 mouse assessed as protection against 32 mA current-induced seizure at 100 mg/kg, ip after 4 hrs by 6 Hz psychomotor test. It counts as functional, organism-based.
The test system of series [14] is Mus musculus. Put plainly: Anticonvulsant activity in albino CD1 mouse assessed as protection against 32 mA current-induced seizure at 100 mg/kg, ip after 0.5 hrs by 6 Hz psychomotor test. It is filed as functional.
In series [15] the test system is Mus musculus. The experiment in a line: Anticonvulsant activity in ip dosed albino CD1 mouse assessed as protection against 32 mA current-induced seizure by 6 Hz psychomotor test. It is filed as functional.

`CC(C)C1CC(=O)N(CN2CCC(Cc3ccccc3)CC2)C1=O` (centres undefined): the outcome in the series with Mus musculus [1], in the series with Mus musculus [3], with Mus musculus [5] and in the series with Mus musculus [6] was inactive. Also, the Activity entry with Mus musculus [2] and in the series on Mus musculus [4] was “Non-Toxic” each time.
Consider `O=C1CCC(=O)N1CN1CCN(Cc2ccccc2)CC1`, for which the result with Mus musculus [1], in the series on Mus musculus [3], in the series on Mus musculus [5] and in the series with Mus musculus [6] was inactive. Moreover, the Activity entry with Mus musculus [2] and with Mus musculus [4] was “Non-Toxic” in each case.
As for `CC1CC(=O)N(CN2CCN(C)CC2)C1=O` (centres undefined), the outcome with Mus musculus [1], in the series on Mus musculus [3], in the series with Mus musculus [5] and in the series on Mus musculus [6] was inactive. Also, the Activity entry with Mus musculus [2] and with Mus musculus [4] was “Non-Toxic” in each case.
In the case of `O=C1CC(C(c2ccccc2)c2ccccc2)C(=O)N1CN1CCN(C2CCCCC2)CC1` (centres undefined), the Activity result in the series with Mus musculus [2] is “Non-Toxic”; with Mus musculus [7] it was 300 mg/kg; in the series with Mus musculus [4], “Non-Toxic”; with Mus musculus [8], 300 mg/kg. Besides, the outcome with Mus musculus [5] and in the series with Mus musculus [6] was inactive.
For the compound `CC(C)C1CC(=O)N(CN2CCN(C3CCCCC3)CC2)C1=O` (centres undefined), in the series on Mus musculus [9], the ED50 worked out at 91.8 mg/kg. The Activity result is “Non-Toxic” with Mus musculus [2], 100 mg/kg with Mus musculus [7] and “Non-Toxic” in the series with Mus musculus [4]. Besides, the outcome in the series on Mus musculus [3], in the series with Mus musculus [5] and in the series with Mus musculus [6] was inactive. Moreover, the TD50 in [10] was under 200 mg/kg. Besides, in the series on Mus musculus [11], the Time is 0.5 h. Moreover, in the series on Mus musculus [12], the “Ratio TD50/ED50” value was under 2.17.
`O=C1CC(C(c2ccccc2)c2ccccc2)C(=O)N1CN1CCN(c2ncccn2)CC1` (centres undefined): the result in the series with Mus musculus [1], with Mus musculus [5] and in the series on Mus musculus [6] was inactive. The Activity entry in the series with Mus musculus [2] is “Non-Toxic”; in the series with Mus musculus [4] it was “Non-Toxic”; with Mus musculus [8], 300 mg/kg.
For `O=C1CCC(=O)N1CN1CCN(C2CCCCC2)CC1`, the outcome in the series on Mus musculus [1], in the series with Mus musculus [3], in the series with Mus musculus [5] and with Mus musculus [6] was inactive. Besides, the Activity entry with Mus musculus [2] and in the series with Mus musculus [4] was “Non-Toxic” each time.
`O=C1CC(C(c2ccccc2)c2ccccc2)C(=O)N1CN1CCC(Cc2ccccc2)CC1` (centres undefined): the result in the series with Mus musculus [1], in the series with Mus musculus [3], in the series on Mus musculus [5] and in the series with Mus musculus [6] was inactive. In addition, the Activity result with Mus musculus [2] and with Mus musculus [4] was “Non-Toxic” throughout.
`CC(C)C1CC(=O)N(CN2CCN(C)CC2)C1=O` (centres undefined): the 50% effective dose (ED50) with Mus musculus [9] came out at 74.9 mg/kg. Also, the Activity result is “Non-Toxic” in the series with Mus musculus [2], 300 mg/kg in the series on Mus musculus [7], “Non-Toxic” in the series on Mus musculus [4] and 100 mg/kg in the series on Mus musculus [8]. Besides, the TD50 in series [10] is over 300 mg/kg. Moreover, the outcome in the series with Mus musculus [13], with Mus musculus [14], with Mus musculus [5] and in the series on Mus musculus [6] was inactive. For the same compound, the Time with Mus musculus [11] turned out to be 0.5 h. Besides, the “Ratio TD50/ED50” value with Mus musculus [12] is on record as over 4.
Turning to `O=C1CCC(=O)N1CN1CCOCC1`, the result in the series on Mus musculus [1], in the series with Mus musculus [3], with Mus musculus [5] and in the series on Mus musculus [6] was inactive. The Activity entry in the series with Mus musculus [2] and in the series with Mus musculus [4] was “Non-Toxic” throughout.
As to `O=C1CCC(=O)N1CN1CCN(CCO)CC1`, the outcome with Mus musculus [1], in the series on Mus musculus [3], in the series with Mus musculus [5] and with Mus musculus [6] was inactive. The Activity entry with Mus musculus [2] and in the series on Mus musculus [4] was “Non-Toxic” in each case.
Consider `CC[C@@H](C(N)=O)N1CCCC1=O`, for which the TD50 in series [10] was over 500 mg/kg. The Time in the series on Mus musculus [11] amounted to 1 h.
`CC1CC(=O)N(CN2CCC(Cc3ccccc3)CC2)C1=O` (centres undefined): the result in the series with Mus musculus [1], in the series with Mus musculus [3], with Mus musculus [5] and with Mus musculus [6] was inactive. Also, the Activity result in the series on Mus musculus [2] and with Mus musculus [4] was “Non-Toxic” each time.
Turning to `CC1CC(=O)N(CN2CCN(C3CCCCC3)CC2)C1=O` (centres undefined), the result in the series with Mus musculus [1], in the series on Mus musculus [3], in the series with Mus musculus [5] and in the series with Mus musculus [6] was inactive. Moreover, the Activity result in the series on Mus musculus [2] and with Mus musculus [4] was “Non-Toxic” throughout.
As to `O=C1CC(C(c2ccccc2)c2ccccc2)C(=O)N1CN1CCN(Cc2ccccc2)CC1` (centres undefined), the Activity entry was “Non-Toxic” in the series with Mus musculus [2], 300 mg/kg in the series on Mus musculus [7], “Non-Toxic” with Mus musculus [4] and 100 mg/kg in the series on Mus musculus [8]. Also, the outcome in the series on Mus musculus [5] and in the series on Mus musculus [6] was inactive.
For `CC1CC(=O)N(CN2CCN(Cc3ccccc3)CC2)C1=O` (centres undefined), the outcome in the series on Mus musculus [1], in the series on Mus musculus [3], with Mus musculus [5] and in the series on Mus musculus [6] was inactive. Besides, the Activity result with Mus musculus [2] and in the series on Mus musculus [4] was “Non-Toxic” each time.
With `CC(C)C1CC(=O)N(CN2CCOCC2)C1=O` (centres undefined), the Activity entry is “Non-Toxic” with Mus musculus [2], 300 mg/kg in the series on Mus musculus [7] and “Non-Toxic” in the series with Mus musculus [4]. Also, the outcome in the series on Mus musculus [3], in the series with Mus musculus [13], with Mus musculus [14], in the series with Mus musculus [5] and in the series with Mus musculus [6] was inactive.
Turning to `COC[C@@H](NC(C)=O)C(=O)NCc1ccccc1` [LACOSAMIDE], the ED50 with Mus musculus [15] was 5.2 mg/kg. Further, the Time with Mus musculus [11] worked out at 0.5 h.
Take `O=C1CCC(=O)N1CN1CCN(c2ncccn2)CC1`: the outcome in the series with Mus musculus [1], in the series on Mus musculus [3], in the series on Mus musculus [5] and with Mus musculus [6] was inactive. Further, the Activity entry in the series on Mus musculus [2] and in the series on Mus musculus [4] was “Non-Toxic” in each case.
On to `O=C1CCC(=O)N1CN1CCC(Cc2ccccc2)CC1`, for which the outcome with Mus musculus [1], with Mus musculus [3], in the series on Mus musculus [5] and in the series on Mus musculus [6] was inactive. Also, the Activity result in the series with Mus musculus [2] and in the series with Mus musculus [4] was “Non-Toxic” throughout.
As for `CCCC(CCC)C(=O)O` [VALPROIC ACID], the figures for the ED50 in the series with Mus musculus [9] and in the series with Mus musculus [15] were 240 mg/kg and 131 mg/kg, respectively. Moreover, in the series on Mus musculus [11], the Time was found to be 0.5 h.
As to `CC(C)C1CC(=O)N(CN2CCN(c3ncccn3)CC2)C1=O` (centres undefined), the result with Mus musculus [1], in the series with Mus musculus [3], in the series on Mus musculus [5] and in the series with Mus musculus [6] was inactive. Further, the Activity entry in the series with Mus musculus [2] and with Mus musculus [4] was “Non-Toxic” each time.
For `CC1CC(=O)N(CN2CCN(c3ncccn3)CC2)C1=O` (centres undefined), the result in the series with Mus musculus [1], with Mus musculus [3], in the series on Mus musculus [5] and in the series on Mus musculus [6] was inactive. In addition, the Activity result in the series on Mus musculus [2] and with Mus musculus [4] was “Non-Toxic” in each case.
As to `CC1CC(=O)N(CN2CCOCC2)C1=O` (centres undefined), the result with Mus musculus [1], in the series with Mus musculus [3], with Mus musculus [5] and in the series on Mus musculus [6] was inactive. The Activity result in the series with Mus musculus [2] and in the series with Mus musculus [4] was “Non-Toxic” each time.
Turning to `CCC1(C)CC(=O)NC1=O` (centres undefined) [ETHOSUXIMIDE], in the series with Mus musculus [11], the Time amounted to 0.25 h.
On to `CC(C)C1CC(=O)N(CN2CCN(Cc3ccccc3)CC2)C1=O` (centres undefined), for which the result in the series with Mus musculus [1], in the series on Mus musculus [3], in the series with Mus musculus [5] and in the series with Mus musculus [6] was inactive. For the same compound, the Activity result with Mus musculus [2] and in the series on Mus musculus [4] was “Non-Toxic” each time.
On to `CC1CC(=O)N(CN2CCN(CCO)CC2)C1=O` (centres undefined), for which the result with Mus musculus [1], in the series with Mus musculus [3], in the series on Mus musculus [5] and in the series with Mus musculus [6] was inactive. The Activity entry in the series on Mus musculus [2] and in the series on Mus musculus [4] was “Non-Toxic” in each case.
Consider `CN1CCN(CN2C(=O)CCC2=O)CC1`, for which the outcome in the series with Mus musculus [1], in the series on Mus musculus [3], with Mus musculus [5] and in the series with Mus musculus [6] was inactive. The Activity result in the series with Mus musculus [2] and in the series with Mus musculus [4] was “Non-Toxic” throughout.
